{"source": "patent US8293726B2", "about": "“Treatment of cancer and other diseases” (Vianova Labs, Inc., priority 2005, dated 2012)", "key": {"[1]": {"tested_on": "experimentally induced large B-cell lymphoma", "assay": "Therapeutic efficacy in mice with experimentally induced large B-cell lymphoma (blood tests, LDH, body weight, autopsy)", "type": "in vivo", "parameters": "Lymphocytes: unit not given here", "conditions": "for LDH: blood plasma; for Total protein: blood serum; for Lymphocytes: blood", "protocol": "Investigations were carried out on immunocompromised laboratory mice with experimentally-induced large B-cell lymphoma using hematological, immunological, biochemical, anatomical, and cytological methods. Two groups of 15 mice were employed. In the first group, 24-ethyl-cholestane-3β,5α,6α-triol was administered orally daily at a dosage of 5 mg/kg. The second group served as the control. The following parameters of therapeutic efficacy were compared: dynamics of LDH activity in the blood plasma, content of total protein, and general clinical blood test results.\nAs is seen from Table 2, statistically important differences (P<0.05) between animals with lymphoma and healthy animals were marked by the amount of leukocytes, hemoglobin, by color indication, the absolute number of lymphocytes in blood, as well as the content of total protein in the blood serum and the LDH activity in blood plasma. These changes characterize the presence of disorders in the lymphoid component of blood formation, indicate the presence of intensive cytolysis in the process of carcinogenesis (due to increased LDH), and show the presence of processes suppressing biosynthesis of protein.\nThe total content of protein in the blood serum and the hemoglobin concentration are increased. At the same time, a decrease in LDH activity in the blood plasma and in the number of lymphocytes was observed (FIG. 5)."}, "[2]": {"tested_on": "human tumor cell line: adenocarcinoma of the lung", "assay": "Human tumor cell lines in immunocompromised mice (intraperitoneal, ascitis): lung adenocarcinoma", "type": "in vivo", "conditions": "treated mice (4, 2 and 0.8 mg/kg/day orally for 10 days)", "protocol": "Immunocompromised mice were used for this experiment. Mice were inbred in a sterile environment and fed ad libitum. Four groups of 40 mice, weighing approximately 20 g each (range: 17-25 g), were used for each tumor type. The human tumor cell lines used were the following: large B-cell lymphoma; squamous-cell carcinoma of the lung; ductal carcinoma breast; and adenocarcinoma of the lung. A suspension of tumor cells was injected in the peritoneum of immunocompromised mice. Following this, mice were examined and weighed daily. After 6-8 days, we observed the development of abdominal carcinomatosis and […]. At day 18, we observed the development of an abundant […], which increased the weight of the mice by approximately 20 g. At that time, mice were divided into four groups of 10. […] Assessment of tumor cell concentration in the […] abdominal metastases were measured on day 18 and every 2 days thereafter. In all mice, prior to treatment, we observed an increase in LDH ESR (>100) and a decrease in the hematocrit. Control (untreated) mice all died between day 21 and day 25 in all tumor types. […] Complete response: Weight (and ascetic) loss and the disappearance of all abdominal metastatic nodules and tumor cells. Partial response: Weight (and ascitic) loss and at least 25% decrease of tumor cell in the […] least 25% decrease in measured abdominal metastatic nodules. […] Progressive disease: When we observed an increase in […] or tumor volume or death of the animal."}, "[3]": {"tested_on": "poorly differentiated lobular carcinoma of the right breast", "assay": "Patient case: stage IV lobular breast carcinoma with liver, spleen and bone metastases", "type": "in vivo, human", "text": "A patient with a past medical history of anemia and mild chronic renal failure due to retroperitoneal fibrosis presented with a stage IV poorly differentiated lobular carcinoma of the right breast and liver, spleen and bone metastases. […] Three days after treatment, we observed a decrease in LDH level from 450 to 204."}, "[4]": {"tested_on": "breast cancer stage IV with lung and bone metastases", "assay": "Patient case: breast cancer stage IV with lung and bone metastases, CA 15-3", "type": "in vivo, human", "conditions": "for CA 15-3: Femara, Decapeptyl", "text": "A patient presented with breast cancer stage IV with lung and bone metastases. They previously underwent a left radical mastectomy for a stage 2 colloidal mucinous adenocarcinoma Hormone receptors and c-erb B were negative. They received adjuvant chemotherapy (FAC) followed by radiotherapy. Later, a sternal bone metastasis appeared and was resected. […] They also developed lung metastases up to 4 cm size. They received chemotherapy with taxotere, navelbine, and pamidronate, followed by tamoxifen. This treatment gave an almost complete response in the lungs. Tamoxifen was replaced by Femara. The patient received radiotherapy on the spine (T4 and T1 2) and Zometa is administered along with Femara. […] Zometa and Femara were continued and Decapeptyl was added to the treatment."}, "experimental lymphoma": {"tested_on": "experimental lymphoma", "assay": "Histological analysis of liver and kidneys of mice with experimental lymphoma", "type": "in vivo", "conditions": "mouse with experimental lymphoma, orally daily 250 mg/kg", "protocol": "FIGS. 11 and 12 are photomicrographs (450× and 900×, respectively) of part of the liver taken from a mouse with experimental lymphoma orally administered 24-ethyl-cholestane-3β,5α,6α-triol daily at a dosage of 250 mg/kg. Lymphocytic proliferation is insignificant.\nParenchymatous organs liver and kidneys received from mice with experimental lymphoma on the 15th day of observation and from mice treated with 24-ethyl-cholestane-3β,5α,6α-triol were taken for the histological analysis. Micropreparations were stained with hematoxilin eosin and examined by microscopy (FIGS. 9, 10, 11, and 12)."}, "[5]": {"conditions": "5 mg/kg orally daily, course of treatment"}, "[6]": {"conditions": "first treated group, M (arithmetic mean of 3 animals)"}, "[7]": {"conditions": "first treated group, individual animals"}, "[8]": {"conditions": "second treated group, M (arithmetic mean of 3 animals)"}, "[9]": {"conditions": "second treated group, individual animals"}, "[10]": {"conditions": "third treated group, M (arithmetic mean of 4 animals)"}, "[11]": {"conditions": "third treated group, individual animals"}}, "note": "Values joined by “and” are separate entries in the source; they are usually repeats but may differ in a detail not shown here. Equal entries are not always repeated."}
{"molecule": "CC[C@H](CC[C@@H](C)[C@H]1CC[C@H]2[C@@H]3C[C@H](O)[C@@]4(O)C[C@@H](O)CC[C@]4(C)[C@H]3CC[C@]12C)C(C)C", "note": "[24-ethyl-cholestane-3β,5α,6α-triol]", "values": [{"measurement": "hemoglobin concentration", "setting": "[1]; [5]", "result": "increased"}, {"measurement": "number of lymphocytes", "setting": "[1]; [5]", "result": "decrease"}, {"measurement": "total content of protein in the blood serum", "setting": "[1]; [5]", "result": "increased"}, {"measurement": "autopsy: liver, kidney and spleen tissues, treated animals with lymphoma vs healthy mice", "setting": "[1]; 5 mg/kg orally daily, sixteen days", "result": "no differences"}, {"measurement": "LDH", "setting": "[1]; [6]", "result": 962.00, "unit": "U/L"}, {"measurement": "LDH", "setting": "[1]; [7]", "result": "1056 U/L and 974 U/L and 856 U/L"}, {"measurement": "LDH", "setting": "[1]; [8]", "result": 749.7, "unit": "U/L"}, {"measurement": "LDH", "setting": "[1]; [9]", "result": "698 U/L and 753 U/L and 798 U/L"}, {"measurement": "LDH", "setting": "[1]; [10]", "result": 673, "unit": "U/L"}, {"measurement": "LDH", "setting": "[1]; [11]", "result": "759 U/L and 583 U/L and 697 U/L and 653 U/L"}, {"measurement": "Total protein", "setting": "[1]; [6]", "result": 53.63, "unit": "g/L"}, {"measurement": "Total protein", "setting": "[1]; [7]", "result": "51.5 g/L and 52.6 g/L and 56.8 g/L"}, {"measurement": "Total protein", "setting": "[1]; [8]", "result": 54.73, "unit": "g/L"}, {"measurement": "Total protein", "setting": "[1]; [9]", "result": "52.9 g/L and 54.5 g/L and 56.8 g/L"}, {"measurement": "Total protein", "setting": "[1]; [10]", "result": 57.625, "unit": "g/L"}, {"measurement": "Total protein", "setting": "[1]; [11]", "result": "56.5 g/l (2×) and 57.8 g/l and 59.7 g/l"}, {"measurement": "Lymphocytes", "setting": "[1]; [6]", "result": 9.15}, {"measurement": "Lymphocytes", "setting": "[1]; [8]", "result": 7.523}, {"measurement": "Lymphocytes", "setting": "[1]; [10]", "result": 7.464}, {"measurement": "LDH level in some animals", "setting": "[1]; by the sixteenth day of treatment, some animals", "result": "reached the level of healthy animals"}, {"measurement": "Body, weight", "setting": "[1]; day 16, treated vs untreated diseased mice", "result": "tendency to a gain in mass"}, {"measurement": "decrease of LDH activity in blood plasma", "setting": "[1]; diseased mice, 5 mg/kg orally daily, by the sixteenth day of treatment", "result": 42.3, "unit": "%"}, {"measurement": "Body, weight", "setting": "[1]; [6]", "result": 18.04, "unit": "g"}, {"measurement": "neutrophiles/lymphocytes", "setting": "[1]; [6]", "result": 0.28}, {"measurement": "Body, weight", "setting": "[1]; [7]", "result": "18.27 g and 17.86 g and 18.00 g"}, {"measurement": "Body, weight", "setting": "[1]; [8]", "result": 18.2, "unit": "g"}, {"measurement": "Body, weight", "setting": "[1]; [9]", "result": "18.28 g and 18.36 g and 17.97 g"}, {"measurement": "Body, weight", "setting": "[1]; [10]", "result": 18.3775, "unit": "g"}, {"measurement": "neutrophiles/lymphocytes", "setting": "[1]; [10]", "result": 0.3255}, {"measurement": "Body, weight", "setting": "[1]; [11]", "result": "18.53 g and 18.12 g and 18.26 g and 18.60 g"}, {"measurement": "Complete Remission", "setting": "[2]", "result": 40, "unit": "%"}, {"measurement": "Partial Remission", "setting": "[2]", "result": 20, "unit": "%"}, {"measurement": "Progressive Disease", "setting": "[2]", "result": 10, "unit": "%"}, {"measurement": "Stable Disease", "setting": "[2]", "result": 30, "unit": "%"}, {"measurement": "Symptomatic Response", "setting": "[2]", "result": 100, "unit": "%"}, {"measurement": "CA 125", "setting": "[3]; After LC (five months), 60 mg/day, Before LC 125", "result": 69}, {"measurement": "CA 15-3", "setting": "[3]; After LC (five months), 60 mg/day, Before LC 237", "result": 86}, {"measurement": "renal failure and anemia", "setting": "[3]; after treatment, 60 mg/day", "result": "improved"}, {"measurement": "spleen metastasis on CT scan", "setting": "[3]; after treatment, 60 mg/day", "result": "regressed"}, {"measurement": "total Body MRI", "setting": "[3]; after treatment, 60 mg/day", "result": "complete liver and spleen response"}, {"measurement": "primitive breast mass on ultrasound", "setting": "[3]; after treatment, regressed from 5", "result": 3, "unit": "cm"}, {"measurement": "liver enzymes including LDH", "setting": "[3]; five months after treatment commenced, 60 mg/day", "result": "returned to normal"}, {"measurement": "LDH level", "setting": "[3]; three days after treatment, 60 mg/day, decrease from 450", "result": 204}, {"measurement": "CA 15-3", "setting": "[4]; Month 5, 60 mg/day with Zometa, Month 0 prior to treatment 277 (nl < 35)", "result": 156, "unit": "U"}, {"measurement": "CA 15-3", "setting": "[4]; Month 6, 60 mg/day with Zometa", "result": "85 U and 52 U"}, {"measurement": "CA 15-3", "setting": "[4]; Month 14, 60 mg/day with Zometa", "result": 24, "unit": "U"}, {"measurement": "CA 15-3", "setting": "[4]; Month 16, 60 mg/day with Zometa", "result": 19.5, "unit": "U"}, {"measurement": "symptoms", "setting": "[4]; two weeks after the beginning of LC", "result": "totally asymptomatic"}, {"measurement": "lymphocytic proliferation in liver (photomicrographs)", "setting": "experimental lymphoma", "result": "insignificant"}]}
